Where “and” joins values, the source holds several entries; their conditions need not be identical. Identical values can stand only once.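 Values below derive from 48-hour exposures of cells grown in 96-well plates, with endpoints linearly interpolated between the two concentrations bracketing the appropriate inhibition level. The concentration for 50% growth inhibition is given as GI50. The concentration for full growth arrest is given as TGI.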
Columns and labels:
Test in all cases: DTP human tumour cell line panel, 48 h
A498 renal = system: A498 renal
CAKI-1 renal = system: CAKI-1 renal
HOP-62 NSCLC = system: HOP-62 NSCLC
IGROV1 ovarian = system: IGROV1 ovarian
KM12 colon = system: KM12 colon
NCI-H23 lung = system: NCI-H23 lung
OVCAR-5 ovarian = system: OVCAR-5 ovarian
SNB-19 CNS = system: SNB-19 CNS
SW-620 colon = system: SW-620 colon
SK-MEL-2 melanoma = system: SK-MEL-2 melanoma

## NCCSSCc1ccccc1CSSCCN
A498 renal
  TGI: > 100 µM
CAKI-1 renal
  TGI: > 100 µM
HOP-62 NSCLC
  TGI: > 100 µM
IGROV1 ovarian
  TGI: > 100 µM
KM12 colon
  TGI: > 100 µM
NCI-H23 lung
  TGI: > 100 µM
OVCAR-5 ovarian
  TGI: > 100 µM
SNB-19 CNS
  TGI: > 100 µM
SW-620 colon
  TGI: 45.8 µM

## O=C(CSc1nc2c(n1Nc1ccccc1)-c1ccccc1SC2)Nc1nc(-c2ccc(Cl)cc2)cs1
A498 renal
  GI50: 6.44 µM
  TGI: 32.8 µM
HOP-62 NSCLC
  GI50: 14 µM
  TGI: 34 µM
IGROV1 ovarian
  GI50: 12.5 µM
  TGI: 78.2 µM
KM12 colon
  GI50: > 100 µM
  TGI: > 100 µM
NCI-H23 lung
  GI50: 6.48 µM
  TGI: 97.1 µM
OVCAR-5 ovarian
  GI50: > 100 µM
  TGI: > 100 µM
SK-MEL-2 melanoma
  GI50: 37.2 µM
  TGI: > 100 µM
SNB-19 CNS
  GI50: 15.3 µM
  TGI: 63.5 µM

## Cc1c(C)c2ccc3oc4ccccc4c3c2oc1=O
A498 renal
  TGI: > 100 µM
CAKI-1 renal
  TGI: > 100 µM
HOP-62 NSCLC
  TGI: > 100 µM
IGROV1 ovarian
  TGI: > 100 µM
KM12 colon
  TGI: > 100 µM
NCI-H23 lung
  TGI: > 100 µM
OVCAR-5 ovarian
  TGI: > 100 µM
SNB-19 CNS
  TGI: > 100 µM
SW-620 colon
  TGI: > 100 µM

## CN(CCS(=O)(=O)N1C(=O)C2CCCN2C(=O)[C@@H]1Cc1ccccc1)C(=O)OCc1ccccc1 (some centres not stated)
A498 renal
  TGI: > 100 µM
CAKI-1 renal
  TGI: > 100 µM
HOP-62 NSCLC
  TGI: > 100 µM
IGROV1 ovarian
  TGI: > 100 µM
KM12 colon
  TGI: > 100 µM
NCI-H23 lung
  TGI: > 100 µM
OVCAR-5 ovarian
  TGI: > 100 µM
SNB-19 CNS
  TGI: > 100 µM
SW-620 colon
  TGI: > 100 µM

## C=CSCCC(N)C(=O)O (configuration not stated)
A498 renal
  TGI: > 100 µM
CAKI-1 renal
  TGI: > 100 µM
HOP-62 NSCLC
  TGI: > 100 µM
IGROV1 ovarian
  TGI: > 100 µM
KM12 colon
  TGI: > 100 µM
NCI-H23 lung
  TGI: > 100 µM
OVCAR-5 ovarian
  TGI: > 100 µM
SNB-19 CNS
  TGI: > 100 µM
SW-620 colon
  TGI: > 100 µM

## C=C(c1ccc(OC)c(/C=C/C(=O)c2ccc3c(c2)OCO3)c1)c1cc(OC)c(OC)c(OC)c1
A498 renal
  GI50: 2.72 µM
  TGI: > 100 µM
CAKI-1 renal
  GI50: 3.02 µM
  TGI: > 100 µM
HOP-62 NSCLC
  GI50: 4.16 µM
  TGI: > 100 µM
IGROV1 ovarian
  GI50: 4.31 µM
  TGI: > 100 µM
NCI-H23 lung
  GI50: 3.2 µM
  TGI: > 100 µM
OVCAR-5 ovarian
  GI50: 4.4 µM
  TGI: > 100 µM
SK-MEL-2 melanoma
  GI50: 4.25 µM
  TGI: > 100 µM
SNB-19 CNS
  GI50: 2.79 µM
  TGI: > 100 µM

## Cc1nc2sccn2c1C(=O)NN
CAKI-1 renal
  TGI: > 100 µM
HOP-62 NSCLC
  TGI: > 100 µM
IGROV1 ovarian
  TGI: > 100 µM
KM12 colon
  TGI: > 100 µM
NCI-H23 lung
  TGI: > 100 µM
OVCAR-5 ovarian
  TGI: > 100 µM
SK-MEL-2 melanoma
  TGI: > 100 µM
SNB-19 CNS
  TGI: > 100 µM
SW-620 colon
  TGI: > 100 µM

## O=C(O)c1cc(-c2ccc3cc4c(cc3c2)OCO4)nc2ccccc12
A498 renal
  TGI: 75.1 µM
HOP-62 NSCLC
  TGI: > 100 µM
IGROV1 ovarian
  TGI: > 100 µM
KM12 colon
  TGI: > 100 µM
NCI-H23 lung
  TGI: > 100 µM
OVCAR-5 ovarian
  TGI: > 100 µM
SK-MEL-2 melanoma
  TGI: > 100 µM
SNB-19 CNS
  TGI: > 100 µM
SW-620 colon
  TGI: > 100 µM

## NNC(=O)C(=O)N/N=C(\CCCC(=O)Nc1ccc(Cl)cc1)CC(=O)c1ccc(F)cc1
A498 renal
  TGI: 88.6 µM
HOP-62 NSCLC
  TGI: > 100 µM
IGROV1 ovarian
  TGI: > 100 µM
KM12 colon
  TGI: > 100 µM
NCI-H23 lung
  TGI: > 100 µM
OVCAR-5 ovarian
  TGI: > 100 µM
SK-MEL-2 melanoma
  TGI: > 100 µM
SNB-19 CNS
  TGI: > 100 µM
SW-620 colon
  TGI: > 100 µM

## CCN(CC)CCCNc1nccc2c(C)c3c(cc12)c1cnccc1n3C
A498 renal
  TGI: 2.61 µM
CAKI-1 renal
  TGI: 1.03 µM
HOP-62 NSCLC
  TGI: 0.571 µM
IGROV1 ovarian
  TGI: 2.75 µM
NCI-H23 lung
  TGI: 1.18 µM
SNB-19 CNS
  TGI: 1.51 µM
SW-620 colon
  TGI: 1.48 µM

## COC(=O)[C@@H]1c2cc3c(c(O)c2[C@@H](OC2OC(C)C(OC)C(C)(OC)C2OC)C[C@]1(C)O)C(=O)c1c(O)cc2c(c1C3=O)O[C@H]1O[C@]2(C)[C@H](O)[C@@H](N(C)C)[C@@H]1O (some centres not stated)
A498 renal
  TGI: 0.0162 µM
HOP-62 NSCLC
  TGI: 0.328 µM and 0.0435 µM
IGROV1 ovarian
  TGI: 0.65 µM and 4.74 µM
KM12 colon
  TGI: 0.0425 µM and 0.0508 µM
NCI-H23 lung
  GI50: 0.0141 µM
  TGI: 0.0399 µM and 0.0694 µM
OVCAR-5 ovarian
  GI50: 0.0651 µM
SK-MEL-2 melanoma
  TGI: 0.0134 µM and 0.0177 µM
SNB-19 CNS
  TGI: 11.1 µM
SW-620 colon
  TGI: 0.292 µM and 1.37 µM

## C[C@@H](Oc1cc(-n2cnc3ccc(OC4CCN(C)CC4)cc32)sc1C(N)=O)c1ccccc1Cl
A498 renal
  GI50: 0.0403 µM
  TGI: 0.301 µM
CAKI-1 renal
  GI50: 1.08 µM
  TGI: 6.08 µM
HOP-62 NSCLC
  GI50: 0.0166 µM
  TGI: 3.29 µM
IGROV1 ovarian
  GI50: 0.0622 µM
  TGI: 6.88 µM
KM12 colon
  GI50: 0.00886 µM
  TGI: 2.97 µM
NCI-H23 lung
  GI50: 0.0183 µM
  TGI: 5.18 µM
OVCAR-5 ovarian
  GI50: 0.024 µM
  TGI: 5.76 µM
SNB-19 CNS
  GI50: 0.07 µM
  TGI: 13.2 µM
SW-620 colon
  GI50: 0.00875 µM
  TGI: 3.48 µM

## COc1ccc(Nc2nc3cc(N)cc(N)c3nc2-c2ccccc2)cc1
CAKI-1 renal
  GI50: 35.2 µM
  TGI: > 100 µM
HOP-62 NSCLC
  GI50: 27.6 µM
  TGI: > 100 µM
IGROV1 ovarian
  GI50: 15.4 µM
  TGI: 35.8 µM
KM12 colon
  GI50: 15.9 µM
  TGI: 30.9 µM
NCI-H23 lung
  GI50: 12.5 µM
  TGI: 25.3 µM
OVCAR-5 ovarian
  GI50: 21.5 µM
  TGI: 53.4 µM
SK-MEL-2 melanoma
  GI50: 15.6 µM
  TGI: 31.4 µM
SNB-19 CNS
  GI50: 33.8 µM
  TGI: > 100 µM
SW-620 colon
  GI50: 22.5 µM
  TGI: 37 µM

## C=CCC1(CN(C)C)CC/C(=C\c2ccc(OC)cc2)C1=O (configuration not stated)
A498 renal
  TGI: > 100 µM
HOP-62 NSCLC
  TGI: > 100 µM
IGROV1 ovarian
  TGI: > 100 µM
KM12 colon
  TGI: > 100 µM
NCI-H23 lung
  TGI: > 100 µM
OVCAR-5 ovarian
  TGI: > 100 µM
SK-MEL-2 melanoma
  TGI: > 100 µM
SNB-19 CNS
  TGI: > 100 µM
SW-620 colon
  TGI: > 100 µM
